The values below come from patent US5030629A, “Compositions and method comprising heterocyclic compounds containing two heteroatoms as membrane penetration enhancers” (priority 1989, dated 1991).

Series [1] is classed as in vitro ADME, human. How it is done: Sci. 75, 1094 (1986). […] All formulations were studied in triplicate.
Example 39 was repeated with 1% Diclofenac gel, with and without compound of Example 21, was evaluated. The aliquots were analyzed by U.V. Spectrophotometry and average cumulative amount of drug permeating over 24 hours was calculated.

The conditions of series [2]: patch, 5% ES, control without enhancer; receptor ethanol/saline (3:7).
Procedure: The compounds of the present invention were tested in vitro as penetration enhancers according to the procedure outlined below. The penetration enhancers were formulated with pharmacologically active agents in creams and patches.
Human stratum corneum was isolated from full thickness human skin as described by Bronaugh et. al., J. Pharm. […] The skin was placed between the donor and the receptor compartments of diffusion cells in such a way that the dermal side of the skin faced the receptor compartment which was filled with normal saline (pH 7.2-7.4) or appropriate releasing media. The stratum corneum was equilibrated at 37° C. overnight prior to the application of a topical formulation or a transdermal patch. All formulations were studied in triplicate.
(§4) The entire contents of the receptor compartment were removed at specific time intervals for duration of the study period and replenished with fresh saline.
Procedure of Example 39 was repeated with the following 17B-Estradiol (ES) patch formulations. Normal saline in the receptor compartment was replaced by ethanol/saline (3:7).
A short description of series [3]: Penetration of 5-fluorouracil through hairless mouse skin in diffusion cells. The class given is in vitro ADME, hairless mice. The conditions noted are these: for % Penetration (5-Fluorouracil): 1% 5-Fluorouracil, 2% enhancer. How it is done:
(§1) The skin was incubated at 37° C. and the ambient humidity.
(§2) 100 microliters of the solution containing 1 mg of test drug was applied to the epidermal surface within the donor compartment. The entire contents from the 4.2 ml receptor compartment bathing the corium were removed for analysis at 5 or 6, 12 and 24 hours intervals. In each case, the receptor compartment was refilled with 4.2 ml of fresh normal saline.
(§3) The aliquots removed after 5 or 6, 12 and 24 hours were analyzed by HPLC using a C-18 reverse phase column.
The compounds of Examples 8 was tested as penetration enhancers according to the procedure outlined under Example 49.

The nature of series [4]: Penetration of hydrocortisone through hairless mouse skin in diffusion cells. The class given is in vitro ADME, hairless mice. The note with it: for % Penetration (hydrocortisone): 1% hydrocortisone, 2% 1,2-propanediol, 2% enhancer, average for two cells; for penetration enhancing properties as compared to the control (hydrocortisone): in words. How it is done: The compounds of Examples 8 and 13 were tested as penetration enhancing agents according to the procedure below:
as §1, §2, §3

Series [5] is described as follows: Examples 51-62 repeated with other penetration enhancers; comparison as penetration enhancing agents. The note with it: in words.
Another series can be described thus: Hygroscopicity. The class given is physicochemical. How it is done:
34 g (127 mmoles) 1-(2-Hyrdoxyethyl)-2-undecyl-2-imidazoline was dissolved in 300 ml of hexane and 8.5 g […] of acetic acid in 50 ml of hexane were reacted. The precipitate was filtered and then dried at 40°-50° C. under high vacuum for 5 hours. Yield 40.7 g (97.8%).

The conditions of series [6]: patch, 3% PG, control without enhancer, receptor ethanol/saline (3:7).
Procedure: The skin was placed between the donor and the receptor compartments of diffusion cells in such a way that the dermal side of the skin faced the receptor compartment which was filled with normal saline (pH 7.2-7.4) or appropriate releasing media. The stratum corneum was equilibrated at 37° C. overnight prior to the application of a topical formulation or a transdermal patch. All formulations were studied in triplicate.
as §4
Procedure of Example 39 was repeated with the following two sets of Progesterone (PG) patch formulations. Normal saline in the receptor compartment was replaced with ethanol/saline (3:7).

The structures appear in SMILES notation. Where two headings read alike, the source gives them in different places.

Turning to `O=C(O)Cc1ccccc1Nc1c(Cl)cccc1Cl` [Diclofenac, reference compound], the “Average Cumulative Amount of Diclofenac in Micrograms permeating over 24 hours” value in series [1] was 106.7 ± 33.5 Micrograms.

For the molecule `C[C@]12CC[C@@H]3c4ccc(O)cc4CC[C@H]3[C@@H]1CC[C@@H]2O` [ES, 17B-Estradiol], the “Average Cumulative Amount of ES in Micrograms Permeating over 51 Hours” value in series [2] amounted to 30.90 ± 1.00 Micrograms.

In the case of `CCCCCCCCCCCC1=NC(C)(C)CO1` [Example 8, 4,4-dimethyl-2-undecyl-2-oxazoline], the “% Penetration (5-Fluorouracil)” value in series [3] (6 hrs) stood at 59.2%; in series [3] (12 hrs), 60.3%; in series [3] (24 hrs), 60.5%. Besides, the “penetration enhancement compared to the control (5-Fluorouracil)” value in series [3] (in words) is “superior to the control”. The entries for the “% Penetration (hydrocortisone)” value in series [4] (6 hrs), in series [4] (12 hrs) and in series [4] (24 hrs) were 16.1%, 28.2% and 49.1%, respectively. In addition, the “penetration enhancing properties as compared to the control (hydrocortisone)” value in series [4] is reported as “far superior penetration enhancing properties”.

Consider `CCCCCCCCCCCC1=NC(C)(CO)CO1` (centres unmarked) [Example 13, 4-hydroxymethyl-4-methyl-2-undecyl-2-oxazoline], for which the “% Penetration (hydrocortisone)” value was determined as 8.8% in series [4] (6 hrs), 17.3% in series [4] (12 hrs) and 34.9% in series [4] (24 hrs). For the same molecule, the “penetration enhancing properties as compared to the control (hydrocortisone)” value in series [4] is listed as “far superior penetration enhancing properties”.

For `CCCCCCCCCCC1COC(C(F)(F)F)=N1` (centres unmarked) [Example 21, 4-Decyl-2-trifluoromethyl-2-oxazoline], the “penetration enhancing, compared with the prior art and the other examples” value in series [5] is “significantly superior penetration enhancing agents”. In addition, in series [1], the “permeation of Diclofenac through human skin compared to control” value is reported as “increases the permeation”.

Turning to `CCCCCCCCCCCC1=NCCN1CCO` [Example 37, 1-(2-Hyrdoxyethyl)-2-undecyl-2-imidazoline acetate], in “Hygroscopicity”, the “behaviour upon absorbing moisture” value is reported as “hydrated to a gel upon absorbing moisture” and the “hygroscopicity (hydroscopic [sic])” value is “hydroscopic”.

On to `CC(=O)[C@H]1CC[C@H]2[C@@H]3CCC4=CC(=O)CC[C@]4(C)[C@H]3CC[C@]12C` [PG, Progesterone], for which the “Average Cumulative Amount of PG in Micrograms Permeating over 51 Hours” value in series [6] (SET A) stood at 176.3 ± 92.0 Micrograms; in series [6] (SET B) it was 25 ± 17 Micrograms.
